Measurements from patent publication US9783513B2, “STAT3 inhibitors and their anticancer use” (Ohio State Innovation Foundation, priority 2012, dated 2017).
“Also recorded” adds a separate entry of the source.

What was measured:
Format in all cases: cell-based, human
[1] = test system: phosphorylated STAT3 (Tyr705); test: Western blot, constitutive STAT3 phosphorylation
acetyl-STAT3 = test: Western blot, acetyl-STAT3; conditions: 2 h
[2] = test system: P-STAT3 induced by AZD6244; test: Western blot, P-STAT3 induced by MEK inhibitor AZD6244; conditions: 2 h
IL-6 secretion = test: IL-6 secretion; conditions: FIG. 57(C)
[3] = test system: OSM induced STAT3 phosphorylation; test: Western blot, OSM induced STAT3 phosphorylation
AKT and ERK 1/2 = test: Western blot, AKT and ERK1/2 phosphorylation
Procedure: RH30 cells were treated with DMSO, LY-5 (0.25-1 μM) and LY-3 (0.5-2.5 μM) prepared as a 20 mM stock solution in sterile DMSO at 60% to 80% confluence in the presence of 10% FBS for 24 hours. The sarcoma cell line EW8 was treated with DMSO and LY-5 (0.5-2.5 μM) prepared as a 20 mM stock solution in sterile DMSO at 60% to 80% confluence in the presence of 10% FBS for 24 hours. MCF-7 cells and DAOY cells were treated with DMSO, 25-50 ng/ml of IL-6, LY-5 (0.25-1 μM) or LY-3 (0.5-2.5 μM) prepared as a 20 mM stock solution in sterile DMSO, protein expressions of P-STAT3 (Tyr705) and STAT3 were tested. DAOY cells were treated with DMSO, 50 ng/ml of IFN-γ, LY-5 (1-5 μM) prepared as a 20 mM stock solution in sterile DMSO, protein expressions of P-STAT3 (Tyr705) and STAT3 were tested. […]
The cells were harvested and lysed in cold radioimmunoprecipitation assay (RIPA) lysis buffer containing […] and phosphatase inhibitor cocktail, and were subjected to SDS-PAGE. […] Membranes were analyzed using Enhanced Chemiluminescence Plus reagents and scanned with the Storm Scanner (Amersham Pharmacia Biotech, Inc., Piscataway, N.J.).
MCF-7 breast cancer cells were seeded in 10 cm plates and allowed to adhere overnight. […] The cells were harvested after 30 minutes and analyzed by Western blot.

HUVEC spheroids = test: 3D in vitro angiogenesis (spheroid sprouting) assay; conditions: 300 nM
Procedure: The Endothelial Tube Formation Assay (CBA200, Cell Biolabs Inc., San Diego, Calif., USA) was used in addition to the HUVEC proliferation assay. The ECM gel was thawed at 4° C. and mixed to homogeneity using cooled pipette tips. Cell culture plates (96-well) were bottom-coated with a thin layer of ECM gel (50 μl/well), which was left to polymerize at 37° C. for 60 min. HUVEC (2-3×10^4 cells) were stimulated with VEGF in 150 μl medium and added to each well on the solidified ECM gel. Culture medium was added to each well in the presence or absence of LY5. The plates were incubated at 37° C. for 12-18 hours and the endothelial tubes were quantified using a fluorescent microscope after staining with Calcein AM. Three microscope fields were selected at random and photographed. Tube forming ability was quantified by counting the total number of cell clusters and branches under a 4× objective and […] per well. The results are expressed as mean fold change of branching compared with the control groups. Each experiment was performed at least three times. The 3D in vitro angiogenesis assay was performed essentially as described by manufactures instructions (promo cell). […] The spheroids were photographed after 24 hours and sprout formation assessed as described.

Question: Which “constitutive STAT3 phosphorylation at Y705” value ([1]; DAOY, UW288-1 and UW426, 0-5 μM, 2 h) does the source give for `NS(=O)(=O)c1cccc2c1C(=O)C=C(Nc1cccnc1)C2=O` [LY-5, 5,8-dioxo-6-(pyridin-3-ylamino)-5,8-dihydronaphthalene-1-sulfonamide] here?
Answer: decrease in STAT3 phosphorylation

Question: What about the “constitutive STAT3 phosphorylation” value ([1]; EW8, 0.5-1 μM, 8 h) of the same compound?
Answer: decrease in STAT3 phosphorylation; also recorded: dose-dependent decrease in formation of P-STAT3

Question: What about the P-STAT3 ([1]; FIG. 40, HeLa / OS-17 as printed, 0-5 μM, 2 h) of the same compound?
Answer: decrease in STAT3 phosphorylation

Question: What about the “constitutive STAT3 phosphorylation at Y705” value ([1]; HCT-116, 0-5 μM, 2 h, vs LLL12) of the same compound?
Answer: inhibits constitutive STAT3 phosphorylation at Y705 and is more potent than LLL12

Question: What about the P-STAT3 ([1]; OS-17, 0-5 μM, 2 h) of the same compound?
Answer: decrease in STAT3 phosphorylation

Question: And the P-STAT3 ([1]; RD2, 0-2.5 μM, 2 h, FIG. 58)?
Answer: decrease in STAT3 phosphorylation

Question: And the “constitutive STAT3 phosphorylation at Y705” value ([1]; RH30, RD2 and EW8, 0-1 μM, 2 h)?
Answer: decrease in STAT3 phosphorylation

Question: What about the “constitutive STAT3 phosphorylation at Y705” value ([1]; RH30, 0-1 μM, 2 h, FIG. 57) of the same compound?
Answer: decrease in STAT3 phosphorylation

Question: What about the “STAT3 phosphorylation at Y705 and S727” value ([1]; RH30, 5 μM in DMSO or ethanol, 2 h) of the same compound?
Answer: decrease in STAT3 phosphorylation at Y705 and S727

Question: What about the “concentration almost completely inhibiting Tyr705 phosphorylation” value ([1]; RH30, 16 h) of the same compound?
Answer: 0.5 µM

Question: What about the “constitutive STAT3 phosphorylation” value ([1]; RH30, LY-3 0.5-2.5 μM, LY-5 0.25-1 μM, 16 h) of the same compound?
Answer: decrease in STAT3 phosphorylation; also recorded: reduced in a dose-dependent manner

Question: What about the P-STAT3 ([1]; RH30 and RD2, 0-2.5 μM, 2 h) of the same compound?
Answer: decrease in STAT3 phosphorylation

Question: What about the “constitutive STAT3 phosphorylation at Y705” value ([1]; SW480, 0-5 μM, 2 h) of the same compound?
Answer: decrease in STAT3 phosphorylation

Question: What about the “constitutive STAT3 phosphorylation at Y705” value ([1]; UW288-1 and UW426, 0-1 μM, 2 h) of the same compound?
Answer: decrease in STAT3 phosphorylation

Question: What about the P-STAT3 ([1]; UW288-1 and UW426, 0-5 μM, 2 h, FIG. 38) of the same compound?
Answer: decrease in STAT3 phosphorylation

Question: And the acetyl-STAT3 (acetyl-STAT3; RD2, 0-2.5 μM)?
Answer: decrease in STAT3 phosphorylation and acetyl-STAT3

Question: And the acetyl-STAT3 (acetyl-STAT3; UW288-1 and UW426, 0-5 μM)?
Answer: inhibits

Question: And the “P-STAT3 induced by AZD6244” value ([2]; HCT-116, LY5+AZD6244 5 μM+10 μM)?
Answer: decrease in STAT3 phosphorylation

Question: What about the “P-STAT3 induced by AZD6244” value ([2]; MIA-PaCa-2, LY5+AZD 1 μM+10 μM) of the same compound?
Answer: decrease in STAT3 phosphorylation

Question: And the IL-6 secretion (IL-6 secretion)?
Answer: can decrease

Question: What about the “OSM induced STAT3 phosphorylation” value ([3]; MCF-7, 1-2.5 μM, OSM 50 ng/mL) of the same compound?
Answer: inhibit

Question: What about the “OSM induced STAT3 phosphorylation at Y705” value ([3]; SJSA, 0-2.5 μM, 3 h) of the same compound?
Answer: inhibits

Question: What about the “selectivity of phosphorylation inhibition, STAT3 over AKT and ERK 1/2” value (AKT and ERK 1/2; MCF-7, OSM 50 ng/mL) of the same compound?
Answer: selectivity inhibit phosphorylation of STAT3 over AKT and ERK 1/2

Question: And the “phosphorylation of the kinase ERK1/2” value (AKT and ERK 1/2; sarcoma cells, FIG. 1-2)?
Answer: not found to inhibit

Question: What about the “VEGF induced sprouting from preformed HUVEC spheroids” value (HUVEC spheroids) of the same compound?
Answer: reduce HUVEC vascular sprout length

Question: And the “VEGF induced sprouting from preformed HUVEC spheroids” value (HUVEC spheroids; listed as LY5)?
Answer: impaired angiogenic sprouting
